Tests used:
Assay in all cases: MIC, broth microdilution (NCCLS)
Type in all cases: cell-based
[1] = test system: Streptococcus pyogenes Stpy_8668
Procedure: (§1) Strains. The bacterial isolates listed in Table 4 were cultivated from −70° C. frozen stocks by two consecutive overnight passages (P1, P2) at 35° C. on 5% blood agar (Remel, Lenexa, Kans.). Chocolate agar (Remel) is used for Haemophilus influenzae. H. influenzae and Streptococcus pneumoniae are incubated in 5-10% CO2
(§2) Drug Stock Preparation. To determine the amount of solvent to be used to give the desired final concentration, the formula “weight obtained in mg/final concentration in mg/ml” will be used. It will give the amount of solvent in ml needed to be added to give the desired concentration. For example, if 2.5 mg/ml is the desired concentration and the weight of compound is 13.7 mg, then the amount of solvent to be added is […]. Methanol is used as the solvent to dissolve the test compounds. Further dilution of stock is done in sterile, deionized water. Drug stocks are kept frozen at −70° C., protected from light.
(§3) Susceptibility Testing. MICs are determined by the broth microdilution method in accordance with the NCCLS guidelines. In brief, organism suspensions are adjusted to a 0.5 McFarland standard to yield a final inoculum between 3×10^5 and 7×10^5 CFU/ml. Drug dilutions and inocula are made in sterile, cation adjusted Mueller-Hinton Broth (CAMHB) (Remel) for all but S. pneumoniae [CAMHB with 2-5% lysed horse blood (Remel)] and H. influenzae [Haemophilus Test Medium (Remel)]. An inoculum volume of 100 μl is added to wells containing 100 μl of broth with 2-fold serial dilutions of drug. All inoculated microdilution trays are incubated in ambient air at 35° C. for 18-24 hours, except for S. pneumoniae, and H. influenzae (both at 5-10% CO2).
(§4) Following appropriate incubation, the MIC is determined and the MIC is defined as the lowest concentration of the drug that prevented visible growth.
as §1, with “8” for “4”
(§5) Following appropriate incubation, the MIC is determined and the MIC is defined as the lowest concentration of the drug that prevented visible growth. […] Antibacterial activity of representative compounds of the invention were compared against telitromycin.

[2] = test system: Streptococcus pneumoniae Stpn_49619
Procedure: as §1, §2, §3, §4
as §1, with “8” for “4”
as §5

[3] = test system: Streptococcus pneumoniae Stpn_297-749
Procedure: as §1, §2, §3, §4
as §1, with “8” for “4”
as §5

[4] = test system: Streptococcus pneumoniae Stpn_280-962
Procedure: as §1, §2, §3, §4
as §1, with “8” for “4”
as §5

[5] = Table 7, Strain ID F (Table 6): S. pneumoniae Stpn_49619
[6] = Table 7, Strain ID G (Table 6): S. pneumoniae Stpn_297-749
[7] = Table 7, Strain ID H (Table 6): S. pneumoniae Stpn_280-962
[8] = Table 7, Strain ID E (Table 6): S. pyogenes Stpy_8668

CC[C@H]1OC(=O)[C@H](C)[C@@H](O[C@H]2C[C@@](C)(OC)[C@@H](O)[C@H](C)O2)[C@H](C)[C@@H](O[C@@H]2O[C@H](C)C[C@H](N(C)C)[C@H]2O)[C@](C)(OC)C[C@@H](C)C(=O)[C@H](C)[C@@H](O)[C@]1(C)O [Clar., clarithromycin, reference compound]
MIC ([1]; Table 5, Strain ID D (Table 4): S. pyogenes Stpy_8668): =0.05
MIC ([2]; Table 5, Strain ID E (Table 4): S. pneumoniae Stpn_49619): =0.05
MIC ([3]; Table 5, Strain ID F (Table 4): S. pneumoniae Stpn_297-749 Pen R): =0.05
MIC ([4]; Table 5, Strain ID G (Table 4): S. pneumoniae Stpn_280-962 Pen S): =0.05

CC[C@H]1OC(=O)[C@@](C)(F)C(=O)[C@H](C)[C@@H](OC2O[C@H](C)C[C@H](N(C)C)[C@H]2O)[C@@](C)(OC)C[C@@H](C)C(=O)[C@H](C)[C@H]2N(CCCCc3ccnc4ccccc34)C(=O)O[C@]12CC (stereo partly drawn) [Example 17, (3aS,4R,7S,9R,10R,11S,13R,15R,15aR)-3a,4-diethyl-7-fluoro-11-methoxy-7,9,11,13,15-pentamethyl-2,6,8,14-tetraoxo-1-(4-quinolin-4-ylbutyl)tetradecahydro-2H-oxacyclotetradecino[4,3-d][1,3]oxazol-10-yl-3,4,6-trideoxy-3-(dimethylamino)-D-xylo-hexopyranoside]
MIC [2, 5]: =0.05
MIC [3, 6]: =0.05
MIC [4, 7]: =0.05

CC[C@H]1OC(=O)[C@@](C)(F)C(=O)[C@H](C)[C@@H](OC2O[C@H](C)C[C@H](N(C)C)[C@H]2O)[C@@](C)(OC)C[C@@H](C)C(=O)[C@H](C)[C@H]2N(CCCCc3ccc4ccccc4n3)C(=O)O[C@]12CC (stereo partly drawn) [Example 19, (3aS,4R,7S,9R,10R,11S,13R,15R,15aR)-3a,4-diethyl-7-fluoro-11-methoxy-7,9,11,13,15-pentamethyl-2,6,8,14-tetraoxo-1-(4-quinolin-2-ylbutyl)tetradecahydro-2H-oxacyclotetradecino[4,3-d][1,3]oxazol-10-yl-3,4,6-trideoxy-3-(dimethylamino)-D-xylo-hexopyranoside]
MIC [2, 5]: =0.05
MIC [3, 6]: =0.05
MIC [4, 7]: =0.05

CC[C@H]1OC(=O)[C@H](C)C(=O)[C@H](C)[C@@H](OC2O[C@H](C)C[C@H](N(C)C)[C@H]2O)[C@@](C)(OC)C[C@@H](C)C(=O)[C@H](C)[C@H]2N(CCCCn3cnc(-c4cccnc4)c3C)C(=O)O[C@]12CC (stereo partly drawn) [Example 21, (3aS,4R,7R,9R,10R,11S,13R,15R,15aR)-3a,4-DIETHYL-11-METHOXY-7,9,11,13,15-PENTAMETHYL-1-[4-(5-METHYL-4-PYRIDIN-3-YL-1H-IMIDAZOL-1-YL)BUTYL]-2,6,8,14-TETRAOXOTETRADECAHYDRO-2H-OXACYCLOTETRADECINO[4,3-D][1,3]OXAZOL-10-YL-3,4,6-TRIDEOXY-3-(DIMETHYLAMINO)-D-XYLO-HEXOPYRANOSIDE]
MIC [1, 8]: =0.05
MIC [2, 5]: =0.05
MIC [3, 6]: =0.05
MIC [4, 7]: =0.05

CC[C@H]1OC(=O)[C@H](C)C(=O)[C@H](C)[C@@H](OC2O[C@H](C)C[C@H](N(C)C)[C@H]2O)[C@@](C)(OC)C[C@@H](C)C(=O)[C@H](C)[C@H]2N(CCCCn3cnc4ncccc43)C(=O)O[C@]12CC (stereo partly drawn) [Example 22, (3aS,4R,7R,9R,10R,11S,13R,15R,15aR)-3a,4-diethyl-1-[4-(1H-imidazo[4,5-b]pyridin-1-yl)butyl]-11-methoxy-7,9,11,13,15-pentamethyl-2,6,8,14-tetraoxotetradecahydro-2H-oxacyclotetradecino[4,3-d][1,3]oxazol-10-yl-3,4,6-trideoxy-3-(dimethylamino)-D-xylo-hexopyranoside]
MIC [1, 8]: =0.05
MIC [2, 5]: =0.05
MIC [3, 6]: =0.05
MIC [4, 7]: =0.05

CC[C@H]1OC(=O)[C@H](C)C(=O)[C@H](C)[C@@H](OC2O[C@H](C)C[C@H](N(C)C)[C@H]2O)[C@@](C)(OC)C[C@@H](C)C(=O)[C@H](C)[C@H]2N(CCN(C)Cc3cccnc3)C(=O)O[C@]12CC (some centres unmarked) [Example 23]
MIC [1, 8]: =0.05
MIC [2, 5]: =0.05
MIC [3, 6]: =0.05
MIC [4, 7]: =0.05

CC[C@H]1OC(=O)[C@H](C)C(=O)[C@H](C)[C@@H](OC2O[C@H](C)C[C@H](N(C)C)[C@H]2O)[C@@](C)(OC)C[C@@H](C)C(=O)[C@H](C)[C@H]2N(CCCCn3cnc(-c4cncnc4)c3)C(=O)O[C@]12CC (stereo partly drawn) [Example 25, (3aS,4R,7R,9R,10R,11S,13R,15R,15aR)-3a,4-diethyl-11-methoxy-7,9,11,13,15-pentamethyl-2,6,8,14-tetraoxo-1-[4-(4-pyrimidin-5-yl-1H-imidazol-1-yl)butyl]tetradecahydro-2H-oxacyclotetradecino[4,3-d][1,3]oxazol-10-yl-3,4,6-trideoxy-3-(dimethylamino)-D-xylo-hexopyranoside]
MIC [1, 8]: =0.05
MIC [2, 5]: =0.05
MIC [3, 6]: =0.05
MIC [4, 7]: =0.05

CC[C@H]1OC(=O)[C@@](C)(F)C(=O)[C@H](C)[C@@H](OC2O[C@H](C)C[C@H](N(C)C)[C@H]2O)[C@@](C)(OC)C[C@@H](C)C(=O)[C@H](C)[C@H]2N(CCCCn3cnc4ncccc43)C(=O)O[C@]12CC (stereo partly drawn) [Example 27, (3aS,4R,7S,9R,10R,11S,13R,15R,15aR)-3a,4-diethyl-7-fluoro-1-[4-(1H-imidazo[4,5-b]pyridin-1-yl)butyl]-11-methoxy-7,9,11,13,15-pentamethyl-2,6,8,14-tetraoxotetradecahydro-2H-oxacyclotetradecino[4,3-d][1,3]oxazol-10-yl-3,4,6-trideoxy-3-(dimethylamino)-D-xylo-hexopyranoside]
MIC [1, 8]: =0.025
MIC [3, 6]: =0.025
MIC [4, 7]: =0.025

CC[C@H]1OC(=O)[C@H](C)C(=O)[C@H](C)[C@@H](OC2O[C@H](C)C[C@H](N(C)C)[C@H]2O)[C@@](C)(OC)C[C@@H](C)C(=O)[C@H](C)[C@H]2N(CCCCn3cnc(-c4ccncc4)c3)C(=O)O[C@]12CC (stereo partly drawn) [Example 28, (3aS,4R,7R,9R,10R,11S,13R,15R,15aR)-3a,4-DIETHYL-11-METHOXY-7,9,11,13,15-PENTAMETHYL-2,6,8,14-TETRAOXO-1-[4-(4-PYRIDIN-4-YL-1H-IMIDAZOL-1-YL)BUTYL]TETRADECAHYDRO-1H-OXACYCLOTETRADECINO[4,3-D][1,3]OXAZOL-10-YL-3,4,6-TRIDEOXY-3-(DIMETHYLAMINO)-D-XYLO-HEXOPYRANOSIDE]
MIC [1, 8]: =0.05
MIC [2, 5]: =0.05
MIC [3, 6]: =0.05
MIC [4, 7]: =0.05

CC[C@H]1OC(=O)[C@H](C)C(=O)[C@H](C)[C@@H](OC2O[C@H](C)C[C@H](N(C)C)[C@H]2O)[C@@](C)(OC)C[C@@H](C)C(=O)[C@H](C)[C@H]2N(CCCCn3cnc(-c4ccc(C)nc4)c3)C(=O)O[C@]12CC (stereo partly drawn) [Example 29, (3aS,4R,7R,9R,10R,11S,13R,15R,15aR)-3a,4-diethyl-11-methoxy-7,9,11,13,15-pentamethyl-1-{4-[4-(6-methylpyridin-3-yl)-1H-imidazol-1-yl]butyl}-2,6,8,14-tetraoxotetradecahydro-2H-oxacyclotetradecino[4,3-d][1,3]oxazol-10-yl-3,4,6-trideoxy-3-(dimethylamino)-D-xylo-hexopyranoside]
MIC [1, 8]: =0.05
MIC [2, 5]: =0.05
MIC [3, 6]: =0.05
MIC [4, 7]: =0.05

CC[C@H]1OC(=O)[C@@](C)(F)C(=O)[C@H](C)[C@@H](OC2O[C@H](C)C[C@H](N(C)C)[C@H]2O)[C@@](C)(OC)C[C@@H](C)C(=O)[C@H](C)[C@H]2N(CCCCn3cnc(-c4ccc(C)nc4)c3)C(=O)O[C@]12CC (stereo partly drawn) [Example 30, (3aS,4R,7S,9R,10R,11S,13R,15R,15aR)-3a,4-diethyl-7-fluoro-11-methoxy-7,9,11,13,15-pentamethyl-1-{4-[4-(6-methylpyridin-3-yl)-1H-imidazol-1-yl]butyl}-2,6,8,14-tetraoxotetradecahydro-2H-oxacyclotetradecino[4,3-d][1,3]oxazol-10-yl 3,4,6-trideoxy-3-(dimethylamino)-D-xylo-hexopyranoside]
MIC [1, 8]: =0.05
MIC [2, 5]: =0.05
MIC [3, 6]: =0.05
MIC [4, 7]: =0.05
